Results reported in patent US10562891B2, “Quinazolinones as PARP14 inhibitors” (Ribon Therapeutics Inc., priority 2017, dated 2020).
Where a name gives a salt, the structure may show the parent alone.

Target: catalytic domain of human PARP14 (Homo sapiens (Human), UniProt Q460N5)
Experiment: Enzymatic assay for inhibition of PARP14 (DELFIA, auto-modification with biotin-NAD)
Assay type: biochemical
Settings: auto-modification of PARP14 by biotin-NAD, 50 nM PARP14, 3 μM biotin-NAD
Protocol: An N-terminal His-TEV fusion tag was used to purify the protein from cell lysates. The His-TEV tag was left on the protein for use in the enzymatic assay.
Enzymatic inhibition of PARP14 was measured using a dissociation-enhanced lanthanide fluorescence immunoassay (DELFIA) monitoring the auto-modification of PARP14 by biotinylated nicotinamide adenine dinucleotide (biotin-NAD). 1 μL of a dose response curve of each test compound was spotted in 384-well nickel-coated white microplates (Thermo) using a Mosquito (TTP Labtech). Reactions were performed in a 50 μL volume by adding 40 μL of PARP14 in assay buffer (20 mM HEPES pH==8, 100 mM NaCl, 0.1% bovine serum albumin, 2 mM DTT and 0.002%0 Tween20), incubating with test compound at 25° C. for 30 min, then adding 10 μL of biotin-NAD (Biolog). The final concentrations of PARP14 and biotin-NAD are 50 nM and 3 μM, respectively. Reactions proceeded at 25° C. for 3 h, then were quenched with 5 μL of 10 mM unmodified nicotinamide adenine dinucleotide (Sigma-Aldrich). The quenched reactions were washed 3 times with 100 μL of TBST wash buffer (50 mM Tris-HCl, 150 mM NaCl and 0.1% Tween20). Next, to the washed and dried plate was added 25 μL of DELFIA Europium-N1 streptavidin (Perkin Elmer) diluted in DELFIA assay buffer (Perkin Elmer). After a 30 min incubation at 25° C., the plate was washed 5 times with TBST wash buffer. Finally, 25 μL of DELFIA enhancement solution was added. After a 5 min incubation the plate was read on an Envision platereader equipped with a LANCE/DELFIA top mirror (Perkin Elmer) using excitation of 340 nm and emission of 615 nm to measure the amount of Europium present in each well, informing on the amount of biotin-NAD that was transferred in the automodification reaction.
[formula] where ex615cmpd is the emission from the compound treated well, ex615min is the emission from the rucaparib treated positive control well and ex615max is the emission from the DMSO treated negative control well.
The % inhibition values were plotted as a function of compound concentration and the following 4-parameter fit was applied to derive the IC50 values:
[formula] where top and bottom are normally allowed to float, but may be fixed at 100 or 0 respectively in a 3-parameter fit. The Hill Coefficient is normally allowed to float but may also be fixed at 1 in a 3-parameter fit. Y is the % inhibition and X is the compound concentration.

Chain of catalytic domain of human PARP14 (Q460N5 1611-1801): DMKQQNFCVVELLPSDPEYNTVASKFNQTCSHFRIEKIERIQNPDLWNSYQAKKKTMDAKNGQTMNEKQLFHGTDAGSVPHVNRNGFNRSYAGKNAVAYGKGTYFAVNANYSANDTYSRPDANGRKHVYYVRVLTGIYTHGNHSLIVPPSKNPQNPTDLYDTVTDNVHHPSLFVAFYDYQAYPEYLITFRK

Compared with `O=c1[nH]c(CSC2CCOCC2)nc2c(F)c(F)ccc12` [Example 45, 7,8-Difluoro-2-(((tetrahydro-2H-pyran-4-yl)thio)methyl)quinazolin-4(3H)-one], `Cc1ccc(F)c2c(=O)[nH]c(CSC3CCNCC3)nc12` [Example 51, 5-Fluoro-8-methyl-2-((piperidin-4-ylthio)methyl)quinazolin-4(3H)-one Hydrochloride] is lower in IC50: 1 to 10 µM for the first, less than 1 µM for the second.

First: O=c1[nH]c(CS[C@H]2CC[C@H](O)CC2)nc2cc(F)ccc12 [Example 46, 7-Fluoro-2-((((trans)-4-hydroxycyclohexyl)thio)methyl)quinazolin-4(3H)-one]
Second: Cc1ccc(F)c2c(=O)[nH]c(CSC3CCC(O)CC3)nc12 (centres unmarked) [Example 56, 5-Fluoro-2-(((4-hydroxycyclohexyl)thio)methyl)-8-methylquinazolin-4(3H)-one]
The IC50 of the first is higher: 1 to 10 µM for the first, less than 1 µM for the second.

`Cc1cccc2c(=O)[nH]c(CS[C@H]3C[C@H](O)C3)nc12` [Example 47, 2-(((trans-3-Hydroxycyclobutyl)thio)methyl)-8-methylquinazolin-4(3H)-one] and `Cc1cccc2c(=O)[nH]c(CS[C@H]3C[C@H](N)C3)nc12` [Example 52, 2-(((trans-3-Aminocyclobutyl)thio)methyl)-8-methylquinazolin-4(3H)-one Hydrochloride] fall in the same range of IC50: 1 to 10 µM for the first, 1 to 10 µM for the second.

First: Cc1cccc2c(=O)[nH]c(CSC3CCCNC3)nc12 (centres unmarked) [Example 48, 8-Methyl-2-((piperidin-3-ylthio)methyl)quinazolin-4(3H)-one Hydrochloride]
Second: Cc1cccc2c(=O)[nH]c(CSC3CCCC(N)CC3)nc12 (centres unmarked) [Example 53, 2-(((4-Aminocycloheptyl)thio)methyl)-8-methylquinazolin-4(3H)-one Trifluoroacetate]
The IC50 of the first is higher: 1 to 10 µM for the first, less than 1 µM for the second.

`Cc1cccc2c(=O)[nH]c(CS[C@H]3CC[C@H](N)CC3)nc12` [Example 49, 2-(((trans-4-Aminocyclohexyl)thio)methyl)-8-methylquinazolin-4(3H)-one Hydrochloride] and `Cc1cccc2c(=O)[nH]c(CS[C@H]3CC[C@@H](N)CC3)nc12` [Example 50, 2-(((cis-4-Aminocyclohexyl)thio)methyl)-8-methylquinazolin-4(3H)-one Trifluoroacetic Acid] fall in the same range of IC50: 1 to 10 µM for the first, 1 to 10 µM for the second.

`Cc1ccc(F)c2c(=O)[nH]c(CS[C@H]3CC[C@H](O)CC3)nc12` [Example 57, 5-Fluoro-2-(((trans-4-hydroxycyclohexyl)thio)methyl)-8-methylquinazolin-4(3H)-one] and `Cc1ccc(F)c2c(=O)[nH]c(CS[C@H]3CC[C@@H](O)CC3)nc12` [Example 58, 5-Fluoro-2-(((cis-4-hydroxycyclohexyl)thio)methyl)-8-methylquinazolin-4(3H)-one] cannot be ordered by IC50: less than 1 µM for the first, less than 1 µM for the second.

`Cc1ccc(C(F)(F)F)c2c(=O)[nH]c(CSC3CCC(O)CC3)nc12` (centres unmarked) [Example 59, 2-(((4-Hydroxycyclohexyl)thio)methyl)-8-methyl-5-(trifluoromethyl)quinazolin-4(3H)-one] and `Cc1ccc(C(F)(F)F)c2c(=O)[nH]c(CS[C@H]3CC[C@H](O)CC3)nc12` [Example 60, 2-(((trans-4-Hydroxycyclohexyl)thio)methyl)-8-methyl-5-(trifluoromethyl) quinazolin-4(3H)-one] cannot be ordered by IC50: less than 1 µM for the first, less than 1 µM for the second.

`Cc1ccc(C(F)(F)F)c2c(=O)[nH]c(CS[C@H]3CC[C@@H](O)CC3)nc12` [Example 61, 2-(((cis-4-Hydroxycyclohexyl)thio)methyl)-8-methyl-5-(trifluoromethyl) quinazolin-4(3H)-one] and `Cc1cccc2c(=O)[nH]c(CS[C@H]3CC[C@H](CO)CC3)nc12` [Example 62, 2-(((trans-4-(Hydroxymethyl)cyclohexyl)thio)methyl)-8-methylquinazolin-4(3H)-one] cannot be ordered by IC50: less than 1 µM for the first, less than 1 µM for the second.

`Cc1cccc2c(=O)[nH]c(CS[C@H]3CC[C@@H](CO)CC3)nc12` [Example 63, 2-(((cis-4-(Hydroxymethyl)cyclohexyl)thio)methyl)-8-methylquinazolin-4(3H)-one] gave an IC50 of 1 to 10 µM.
